Results reported in the OligoGym collection.
These antisense oligonucleotides have a phosphorothioate backbone; sugars and methylation of C are not fully specified.

What was measured:
Conditions in all cases: ASO
PRKACA = molecular target: PRKACA
WWP1 = molecular target: WWP1
CHUK = molecular target: CHUK
PTPN11 = molecular target: PTPN11
Note: test concentration or dose not given here.

Sequence: AAACCACTTGTGGTTCTTGA
- remaining target (mRNA or protein) (fraction of control) (PRKACA): 0.66

Sequence: AAATAACGGAAGTGAGCAAG
- remaining target (mRNA or protein) (fraction of control) (WWP1): 0.88

Sequence: AAATAGTGCCATGGCAATAA
- remaining target (mRNA or protein) (fraction of control) (WWP1): 0.98

Sequence: AAATATACACTTTGGATC
- remaining target (mRNA or protein) (fraction of control) (CHUK): ≥ 1

Sequence: AACAGTAGTACTAGTGCAAT
- remaining target (mRNA or protein) (fraction of control) (WWP1): ≥ 1

Sequence: AACATTGAAGCCGAATAGAG
- remaining target (mRNA or protein) (fraction of control) (WWP1): ≥ 1

Sequence: AACTTCAGGTCATGTGAAGT
- remaining target (mRNA or protein) (fraction of control) (WWP1): ≥ 1

Sequence: AAGCAACCCACTGAACATGT
- remaining target (mRNA or protein) (fraction of control) (PRKACA): 0.62

Sequence: AAGGTTGTGGTCTCTCCCAT
- remaining target (mRNA or protein) (fraction of control) (WWP1): ≥ 1

Sequence: AAGTCTCCCCATCTTGAG
- remaining target (mRNA or protein) (fraction of control) (CHUK): ≥ 1

Sequence: AATTTACACAATCAGATA
- remaining target (mRNA or protein) (fraction of control) (CHUK): ≥ 1

Sequence: AATTTCCCAGCCTTCTGGCA
- remaining target (mRNA or protein) (fraction of control) (WWP1): ≥ 1

Sequence: ACAGACAGACGTTCCCGA
- remaining target (mRNA or protein) (fraction of control) (CHUK): 0.85

Sequence: ACATTGCTGCCCTTTGTC
- remaining target (mRNA or protein) (fraction of control) (CHUK): 0.54

Sequence: ACCATCTCCGCGATGTCATG
- remaining target (mRNA or protein) (fraction of control) (PTPN11): 0.33

Sequence: ACCCTCGCAGGATTGGCAGA
- remaining target (mRNA or protein) (fraction of control) (PRKACA): 0.47

Sequence: ACGGACCCGCTCCTTGCTCA
- remaining target (mRNA or protein) (fraction of control) (PTPN11): 0.48

Sequence: ACTAGAGTGCTTGTAGGTAC
- remaining target (mRNA or protein) (fraction of control) (WWP1): ≥ 1

Sequence: AGAACACATTGAGAGGCT
- remaining target (mRNA or protein) (fraction of control) (CHUK): 0.8

Sequence: AGAATGGTAAAGAGAAACCA
- remaining target (mRNA or protein) (fraction of control) (WWP1): ≥ 1

Sequence: AGAGCATACTCATCAGGCCA
- remaining target (mRNA or protein) (fraction of control) (PTPN11): 0.2

Sequence: AGCAATACATTCAAATAC
- remaining target (mRNA or protein) (fraction of control) (CHUK): ≥ 1

Sequence: AGCACAAATGAGAAAGTGGG
- remaining target (mRNA or protein) (fraction of control) (PRKACA): 0.93

Sequence: AGGATGTGTACTATCTTC
- remaining target (mRNA or protein) (fraction of control) (CHUK): 0.79

Sequence: AGTATCAATAGATTCCAAAT
- remaining target (mRNA or protein) (fraction of control) (WWP1): ≥ 1

Sequence: AGTATCTGGCTTTCTTTA
- remaining target (mRNA or protein) (fraction of control) (CHUK): ≥ 1

Sequence: ATACAGTTTTACTTTTAT
- remaining target (mRNA or protein) (fraction of control) (CHUK): ≥ 1

Sequence: ATACATTGGGTTCAAAACTT
- remaining target (mRNA or protein) (fraction of control) (WWP1): 0.92

Sequence: ATCATCAACTCTTCTTTCCC
- remaining target (mRNA or protein) (fraction of control) (WWP1): 0.7

Sequence: ATCTATTTCTGTGCTGAAGT
- remaining target (mRNA or protein) (fraction of control) (PTPN11): 0.66

Sequence: ATCTGCACAGTTCAGAGGAT
- remaining target (mRNA or protein) (fraction of control) (PTPN11): 0.51

Sequence: ATCTGCAGACAATAGTTGTT
- remaining target (mRNA or protein) (fraction of control) (WWP1): ≥ 1

Sequence: ATCTTGGCTGCTTCAAAG
- remaining target (mRNA or protein) (fraction of control) (CHUK): 0.6

Sequence: ATCTTTGTTCTCCTCAGTCA
- remaining target (mRNA or protein) (fraction of control) (WWP1): 0.92

Sequence: ATGCTCTCCTGCTTATGGTG
- remaining target (mRNA or protein) (fraction of control) (PTPN11): 0.37

Sequence: ATGTCAACAGAAAAGTACAT
- remaining target (mRNA or protein) (fraction of control) (WWP1): ≥ 1

Sequence: ATGTCATGTTCCTCCCGCCC
- remaining target (mRNA or protein) (fraction of control) (PTPN11): 0.43

Sequence: ATTCCAATTCTGCACTGGTA
- remaining target (mRNA or protein) (fraction of control) (WWP1): ≥ 1

Sequence: ATTCTTTCACGCTCTCCTGC
- remaining target (mRNA or protein) (fraction of control) (PRKACA): 0.97

Sequence: ATTGATCTTTACATGACTAG
- remaining target (mRNA or protein) (fraction of control) (WWP1): 0.83

Sequence: ATTGGCATGGTTCAACTT
- remaining target (mRNA or protein) (fraction of control) (CHUK): 0.69

Sequence: CAAACTGATCCAAGTGGGCT
- remaining target (mRNA or protein) (fraction of control) (PRKACA): 0.27

Sequence: CAAGAGAGCGGGCAGAAC
- remaining target (mRNA or protein) (fraction of control) (CHUK): ≥ 1

Sequence: CACACAGGTTGAATCGCCCC
- remaining target (mRNA or protein) (fraction of control) (PRKACA): 0.39

Sequence: CACCATAATCAAGTCCTTCT
- remaining target (mRNA or protein) (fraction of control) (WWP1): 0.52

Sequence: CACGTTTTCATAGACTCTAG
- remaining target (mRNA or protein) (fraction of control) (PTPN11): 0.71

Sequence: CAGGCAGCCCCTCCCCAGCA
- remaining target (mRNA or protein) (fraction of control) (PRKACA): 0.51

Sequence: CATAAGCAATTTGTGGACCA
- remaining target (mRNA or protein) (fraction of control) (WWP1): ≥ 1

Sequence: CATAGTGGATGGCCTTTT
- remaining target (mRNA or protein) (fraction of control) (CHUK): 0.66

Sequence: CATCGCGGCGGCGGCGGCCG
- remaining target (mRNA or protein) (fraction of control) (PRKACA): 0.51

Sequence: CATCTCCGCGATGTCATGTT
- remaining target (mRNA or protein) (fraction of control) (PTPN11): 0.49

Sequence: CATGTTCCTCCCGCCCTCCG
- remaining target (mRNA or protein) (fraction of control) (PTPN11): 0.29

Sequence: CCAGCATCACCCGCCCGAAG
- remaining target (mRNA or protein) (fraction of control) (PRKACA): 0.34

Sequence: CCCATCGCGGCGGCGGCGGC
- remaining target (mRNA or protein) (fraction of control) (PRKACA): 0.53

Sequence: CCCTGCATGAACATGACA
- remaining target (mRNA or protein) (fraction of control) (CHUK): 0.47

Sequence: CCCTTGTCCAACCTTTGAAA
- remaining target (mRNA or protein) (fraction of control) (PTPN11): 0.25

Sequence: CCTGCGCTGTAGTGTTTCAA
- remaining target (mRNA or protein) (fraction of control) (PTPN11): 0.5

Sequence: CCTGGTGGCAAAGGTCCATA
- remaining target (mRNA or protein) (fraction of control) (WWP1): ≥ 1

Sequence: CCTTGAACCCCGGGCCGTGG
- remaining target (mRNA or protein) (fraction of control) (PRKACA): 0.44

Sequence: CGATGTCATGTTCCTCCCGC
- remaining target (mRNA or protein) (fraction of control) (PTPN11): 0.4

Sequence: CGCACCATCTGGATGGTTTT
- remaining target (mRNA or protein) (fraction of control) (PTPN11): 0.5

Sequence: CGCGATGTCATGTTCCTCCC
- remaining target (mRNA or protein) (fraction of control) (PTPN11): 0.45

Sequence: CGCTGCTGGGAGGAAAGACT
- remaining target (mRNA or protein) (fraction of control) (PRKACA): 0.48

Sequence: CGGCGGCGGCGTTGCCCATC
- remaining target (mRNA or protein) (fraction of control) (PRKACA): 0.21

Sequence: CGGCGTTGCCCATCGCGGCG
- remaining target (mRNA or protein) (fraction of control) (PRKACA): 0.47

Sequence: CTACTAAACCGAACTTCT
- remaining target (mRNA or protein) (fraction of control) (CHUK): ≥ 1

Sequence: CTCTCCAAGTCAAGCTGA
- remaining target (mRNA or protein) (fraction of control) (CHUK): 0.49

Sequence: CTGAGATCAAAGTGTTCT
- remaining target (mRNA or protein) (fraction of control) (CHUK): ≥ 1
